Columns and labels:
Assay type in all cases: in vivo
[1] = system: redroot pigweed (Amaranthus retroflexus, AMARE); experiment: Pre-emerge test, greenhouse herbicide activity screening; conditions: pre-emerge, 14 days after application, rating scale 0-100
Outline: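 Rating: 0–100 visual injury, 14 DAA. Application: acetone, 187 l/ha, 15–1000 g ai/ha, flat-fan track sprayer with nozzle 40–45 cm above soil or canopy. Post-emerge runs used 0.25% v/v surfactant on 2–3 leaf plants.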

[2] = system: barnyardgrass (Echinochloa crus-galli, ECHCG); experiment: as above; conditions: pre-emerge, 14 days after application, rating scale 0-100
Outline: (§1)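 Sandy loam pots; pre-emerge: sown 1 d pre-spray, surface-watered after, then bottom-watered. Post-emerge: sown 8–21 d before, 2–3 leaf stage, + 0.25% v/v NIS, bottom-watered. Acetone, 187 l/ha track spray, 15–1000 g ai/ha. 0–100 injury score, day 14.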

[3] = system: green foxtail (Setaria viridis, SETVI); experiment: as above; conditions: pre-emerge, 14 days after application, rating scale 0-100
Outline: as §1

[4] = system: ivyleaf morningglory (Ipomoea hederacea, IPOHE); experiment: as above; conditions: pre-emerge, 14 days after application, rating scale 0-100
Outline: as §1

[5] = system: johnsongrass (Sorghum halepense, SORHA); experiment: as above; conditions: pre-emerge, 14 days after application, rating scale 0-100
Outline: as §1

[6] = system: lambsquarters (Chenopodium album, CHEAL); experiment: as above; conditions: pre-emerge, 14 days after application, rating scale 0-100
Outline: as §1

[7] = system: large crabgrass (Digitaria sanguinalis, DIGSA); experiment: as above; conditions: pre-emerge, 14 days after application, rating scale 0-100
Outline: as §1

[8] = system: sicklepod (Cassia obtusifolia, CASOB); experiment: as above; conditions: pre-emerge, 14 days after application, rating scale 0-100
Outline: as §1

[9] = system: velvetleaf (Abutilon theophrasti, ABUTH); experiment: as above; conditions: pre-emerge, 14 days after application, rating scale 0-100
Outline: as §1

[10] = system: field corn (Zea mays L., var. Dekalb 535, CORN); experiment: Pre-emerge test, crop safety; conditions: pre-emerge, 14 days after application, rating scale 0-100
Outline: (§2)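 Compounds in acetone were track-sprayed at 187 l/ha, 15–1000 g ai/ha, onto sandy loam pots. Pre-emerge seeds were sown one day before spraying, with surface watering afterwards. Post-emerge plants were at the 2–3 leaf stage and sprayed with 0.25% v/v non-ionic surfactant. Injury was rated 0–100 at 14 days.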

[11] = system: upland rice (Oryza sp., var. Tebonnet, RICE); experiment: Pre-emerge test, crop safety; conditions: pre-emerge, 14 days after application, rating scale 0-100
Outline: as §2

[12] = system: barnyardgrass (Echinochloa crus-galli, ECHCG); experiment: Post-emerge test, greenhouse herbicide activity screening; conditions: rating scale 0-100 (0 no damage, 100 complete death), 14 days after application
Outline: as §1

[13] = system: common ragweed (Ambrosia artemisizfolia L., AMBEL); experiment: as above; conditions: rating scale 0-100 (0 no damage, 100 complete death), 14 days after application
Outline: as §1

[14] = system: green foxtail (Setaria viridis, SETVI); experiment: as above; conditions: rating scale 0-100 (0 no damage, 100 complete death), 14 days after application
Outline: as §1

[15] = system: ivyleaf morningglory (Ipomoea hederacea, IPOHE); experiment: as above; conditions: rating scale 0-100 (0 no damage, 100 complete death), 14 days after application
Outline: as §1

[16] = system: johnsongrass (Sorghum halepense, SORHA); experiment: as above; conditions: rating scale 0-100 (0 no damage, 100 complete death), 14 days after application
Outline: as §1

[17] = system: lambsquarters (Chenopodium album, CHEAL); experiment: as above; conditions: rating scale 0-100 (0 no damage, 100 complete death), 14 days after application
Outline: as §1

[18] = system: large crabgrass (Digitaria sanguinalis, DIGSA); experiment: as above; conditions: rating scale 0-100 (0 no damage, 100 complete death), 14 days after application
Outline: as §1

[19] = system: redroot pigweed (Amaranthus retroflexus, AMARE); experiment: as above; conditions: rating scale 0-100 (0 no damage, 100 complete death), 14 days after application
Outline: as §1

[20] = system: sicklepod (Cassia obtusifolia, CASOB); experiment: as above; conditions: rating scale 0-100 (0 no damage, 100 complete death), 14 days after application
Outline: as §1

[21] = system: velvetleaf (Abutilon theophrasti, ABUTH); experiment: as above; conditions: rating scale 0-100 (0 no damage, 100 complete death), 14 days after application
Outline: as §1

[22] = system: field corn (Zea mays L., var. Dekalb 535, CORN); experiment: Post-emerge test, crop safety; conditions: rating scale 0-100 (0 no damage, 100 complete death), 14 days after application
Outline: as §1

[23] = system: upland rice (Oryza sp., var. Tebonnet, RICE); experiment: Post-emerge test, crop safety; conditions: rating scale 0-100 (0 no damage, 100 complete death), 14 days after application
Outline: as §1

COc1c(Cl)cc(F)c(-n2c(=O)cc(C(F)(F)F)n(C)c2=O)c1CC(C)(Cl)C(=O)OCC1CCCO1 (stereo not shown) [14-49]
40: phytotoxicity rating RICE ([11]; 63 g ai/ha)
80: Post-emerge phytotoxicity rating CORN (crop damage) ([22]; Rate 63 g ai/ha)
20: phytotoxicity rating SORHA ([5]; 63 g ai/ha)
50: phytotoxicity rating SETVI ([3]; 63 g ai/ha) | phytotoxicity rating IPOHE ([4]; 63 g ai/ha) | phytotoxicity rating DIGSA ([7]; 63 g ai/ha) | Post-emerge Herbicidal Activity, phytotoxicity rating SETVI ([14]; Rate 63 g ai/ha) | Post-emerge phytotoxicity rating RICE (crop damage) ([23]; Rate 63 g ai/ha)
10: phytotoxicity rating CORN ([10]; 63 g ai/ha)
70: phytotoxicity rating CASOB ([8]; 250 g ai/ha) | Post-emerge Herbicidal Activity, phytotoxicity rating SORHA ([16]; Rate 63 g ai/ha) | Post-emerge Herbicidal Activity, phytotoxicity rating DIGSA ([18]; Rate 63 g ai/ha) | Post-emerge Herbicidal Activity, phytotoxicity rating CASOB ([20]; Rate 63 g ai/ha)
95: phytotoxicity rating CORN ([10]; 250 g ai/ha) | phytotoxicity rating RICE ([11]; 250 g ai/ha) | Post-emerge Herbicidal Activity, phytotoxicity rating SORHA ([16]; Rate 250 g ai/ha) | Post-emerge Herbicidal Activity, phytotoxicity rating DIGSA ([18]; Rate 250 g ai/ha) | Post-emerge Herbicidal Activity, phytotoxicity rating CASOB ([20]; Rate 250 g ai/ha) | Post-emerge phytotoxicity rating RICE (crop damage) ([23]; Rate 250 g ai/ha)
0: phytotoxicity rating ECHCG ([2]; 63 g ai/ha) | phytotoxicity rating CASOB ([8]; 63 g ai/ha)
90: phytotoxicity rating IPOHE ([4]; 250 g ai/ha) | phytotoxicity rating SORHA ([5]; 250 g ai/ha)
100: phytotoxicity rating AMARE ([1]; 63 g ai/ha) | phytotoxicity rating AMARE ([1]; 250 g ai/ha) | phytotoxicity rating ECHCG ([2]; 250 g ai/ha) | phytotoxicity rating SETVI ([3]; 250 g ai/ha) | phytotoxicity rating CHEAL ([6]; 63 g ai/ha) | phytotoxicity rating CHEAL ([6]; 250 g ai/ha) | phytotoxicity rating DIGSA ([7]; 250 g ai/ha) | phytotoxicity rating ABUTH ([9]; 63 g ai/ha) | phytotoxicity rating ABUTH ([9]; 250 g ai/ha) | Post-emerge Herbicidal Activity, phytotoxicity rating ECHCG ([12]; Rate 63 g ai/ha) | Post-emerge Herbicidal Activity, phytotoxicity rating ECHCG ([12]; Rate 250 g ai/ha) | Post-emerge Herbicidal Activity, phytotoxicity rating AMBEL ([13]; Rate 63 g ai/ha) | Post-emerge Herbicidal Activity, phytotoxicity rating AMBEL ([13]; Rate 250 g ai/ha) | Post-emerge Herbicidal Activity, phytotoxicity rating SETVI ([14]; Rate 250 g ai/ha) | Post-emerge Herbicidal Activity, phytotoxicity rating IPOHE ([15]; Rate 63 g ai/ha) | Post-emerge Herbicidal Activity, phytotoxicity rating IPOHE ([15]; Rate 250 g ai/ha) | Post-emerge Herbicidal Activity, phytotoxicity rating CHEAL ([17]; Rate 63 g ai/ha) | Post-emerge Herbicidal Activity, phytotoxicity rating CHEAL ([17]; Rate 250 g ai/ha) | Post-emerge Herbicidal Activity, phytotoxicity rating AMARE ([19]; Rate 63 g ai/ha) | Post-emerge Herbicidal Activity, phytotoxicity rating AMARE ([19]; Rate 250 g ai/ha) | Post-emerge Herbicidal Activity, phytotoxicity rating ABUTH ([21]; Rate 63 g ai/ha) | Post-emerge Herbicidal Activity, phytotoxicity rating ABUTH ([21]; Rate 250 g ai/ha) | Post-emerge phytotoxicity rating CORN (crop damage) ([22]; Rate 250 g ai/ha)
